For assay [1], the target named is T1, thrombin (Homo sapiens, UniProt P00734). In words: Determination of the thrombin-inhibitory activity in plasma samples (ecarin-activated). It is filed as biochemical. Conditions: citrate plasma, ecarin activation, fluorogenic thrombin substrate; in some cases means of individual determinations. Summed up:
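Citrate plasma activated with ecarin (final 20 mU per reaction) in Ca buffer (Hepes, NaCl, CaCl2, PEG), with compound diluted from DMSO into water. Fluorogenic thrombin substrate at final 50 μmol/l; fluorescence (ex 360/em 465 nm) read each minute for 20 minutes, with buffer-only unstimulated control.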

The target of assay [2] is T1, thrombin. In words: Measurement of the thrombin inhibition in buffer. Conditions: human thrombin 0.06 nmol/l in Tris buffer pH 7.4, 22° C., substrate Boc-Asp(OBzl)-Pro-Arg-AMC; in some cases means of individual determinations. It is filed as biochemical. In a few lines: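 Compound pre-incubated 15 min at 22° C with 0.06 nmol/l human thrombin in 50 mmol/l Tris, 100 mmol/l NaCl, 0.1% BSA, pH 7.4, then 5 μmol/l Boc-Asp(OBzl)-Pro-Arg-AMC added for 30 min. AMC fluorescence read at 360/460 nm against DMSO controls; IC50 from concentration–activity curves.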

For orientation: IC50 means the midpoint of a concentration-inhibition curve. High values mean weaker potency in that assay, low ones greater potency in that assay.

Take `COc1cc(C(=O)N2C[C@H](OC3CC3)C[C@H]2CO)cc2nc(NC(C)c3cc(Cl)ccn3)oc12` (stereo partly drawn) [Example 13, (2-{[1-(4-Chloropyridin-2-yl)ethyl]amino}-7-methoxy-1,3-benzoxazol-5-yl)[(2S,4R)-4-(cyclopropyloxy)-2-(hydroxymethyl)pyrrolidin-1-yl]methanone]: the IC50 at thrombin [1] stood at 31 nM; against thrombin [2], 21 nM.
The corresponding values for `COc1cc(C(=O)N2CC(C)(CCO)OCC2CF)cc2nc(NCc3cc(Cl)ccn3)oc12` (stereo not shown) [Example 21, (2-{[(4-Chloropyridin-2-yl)methyl]amino}-7-methoxy-1,3-benzoxazol-5-yl) [5-(fluoromethyl)-2-(2-hydroxyethyl)-2-methylmorpholin-4-yl]methanone] are 55 nM and 10 nM.
The corresponding values for `COc1cc(C(=O)N2CC(C)(CC(C)O)OC[C@H]2C)cc2nc(NC(C)c3cc(Cl)ccn3)oc12` (stereo partly drawn) [Example 26, (2-{[1-(4-Chloropyridin-2-yl)ethyl]amino}-7-methoxy-1,3-benzoxazol-5-yl)[(5R)-2-(2-hydroxypropyl)-2,5-dimethylmorpholin-4-yl]methanone] are 44 nM and 6.2 nM.
As for `CC[C@@H]1COC(C)(CCO)CN1C(=O)c1cc(OC)c2oc(NCc3cc(Cl)ccn3)nc2c1` (stereo partly shown) [Example 28], the IC50 against thrombin [1] stood at 17 nM; against thrombin [2] it was 3.2 nM.
For `COCC1COC(C)(CCO)CN1C(=O)c1cc(OC)c2oc(NCc3cc(Cl)ccn3)nc2c1` (stereo not shown) [Example 30] the same measures were 65 nM and 25 nM.
The corresponding values for `COc1cc(C(=O)N2CC(C)OCC2C2CC(O)C2)cc2nc(NCc3cc(Cl)ccn3)oc12` (stereo not shown) [Example 46, (2-{[(4-Chloropyridin-2-yl)methyl]amino}-7-methoxy-1,3-benzoxazol-5-yl) [5-(3-hydroxycyclobutyl)-2-methylmorpholin-4-yl]methanone] are 23 nM and 14 nM.
Take `COc1cc(C(=O)N2CC(C)(CCO)OCC2C(F)F)cc2nc(NCc3cc(Cl)ccn3)oc12` (stereo not shown) [Example 54, (2-{[(4-Chloropyridin-2-yl)methyl]amino}-7-methoxy-1,3-benzoxazol-5-yl) [5-(difluormethyl)-2-(2-hydroxyethyl)-2-methylmorpholin-4-yl]methanone]: the values for the IC50 against thrombin [1] and against thrombin [2] were 35 nM and 11 nM, respectively.
For `COc1cc(C(=O)N2CC(C)(C)OC[C@H]2CCO)cc2nc(NCc3cc(Cl)ccn3)oc12` [Example 58, (2-{[(4-Chloropyridin-2-yl)methyl]amino}-7-methoxy-1,3-benzoxazol-5-yl)[(5R)-5-(2-hydroxyethyl)-2,2-dimethylmorpholin-4-yl]methanone] the same measures were 27 nM and 17 nM.
For `COc1cc(C(=O)N2CC(C)(C)OC[C@H]2CCO)cc2nc(NC(C)c3cc(Cl)ccn3)oc12` (stereo partly drawn) [Example 59, (2-{[1-(4-Chloropyridin-2-yl)ethyl]amino}-7-methoxy-1,3-benzoxazol-5-yl)[(5R)-5-(2-hydroxyethyl)-2,2-dimethylmorpholin-4-yl]methanone] the same measures were 90 nM and 60 nM.
The corresponding values for `COc1cc(C(=O)N2CC(C)OC[C@@H]2[C@@H](C)O)cc2nc(NCc3cc(Cl)ccn3)oc12` (stereo partly drawn) [Example 68, (2-{[(4-Chloropyridin-2-yl)methyl]amino}-7-methoxy-1,3-benzoxazol-5-yl){(5R)-5-[(1R)-1-hydroxyethyl]-2-methylmorpholin-4-yl}methanone] are 72 nM and 59 nM.
Turning to `COc1cc(C(=O)N2CC(C)(C)OCC2(C)C(C)O)cc2nc(NCc3cc(Cl)ccn3)oc12` (stereo not shown) [Example 69, (2-{[(4-Chloropyridin-2-yl)methyl]amino}-7-methoxy-1,3-benzoxazol-5-yl) [5-(1-hydroxyethyl)-2,2,5-trimethylmorpholin-4-yl]methanone], the IC50 worked out at 27 nM against thrombin [1] and 17 nM on thrombin [2].
As for `CCC1C(=O)N2CCC2CN1C(=O)c1cc(OC)c2oc(NCc3cc(Cl)ccn3)nc2c1` (stereo not shown) [Example 73, 4-[(2-{[(4-Chloropyridin-2-yl)methyl]amino}-7-methoxy-1,3-benzoxazol-5-yl)carbonyl]-3-ethyl-1,4-diazabicyclo[4.2.0]octan-2-one], the half-inhibitory concentration (IC50) on thrombin [1] was 50 nM; against thrombin [2] it was 51 nM.
The corresponding values for `COc1cc(C(=O)N2CC(C)CCC2CC2(O)CC2)cc2nc(NCc3cc(Cl)ccn3)oc12` (stereo not shown) [Example 87, (2-{[(4-Chloropyridin-2-yl)methyl]amino}-7-methoxy-1,3-benzoxazol-5-yl){2-[(1-hydroxycyclopropyl)methyl]-5-methylpiperidin-1-yl}methanone] are 27 nM and 5.3 nM.
The corresponding values for `[2H]C([2H])(C)O[C@@H]1CC(CO)N(C(=O)c2cc(OC)c3oc(NC(C)c4cc(Cl)ccn4)nc3c2)C1` (stereo partly drawn) [Example 97, (2-{[1-(4-Chloropyridin-2-yl)ethyl]amino}-7-methoxy-1,3-benzoxazol-5-yl)[(4R)-4-[(1,1-^2H2)ethyloxy]-2-(hydroxymethyl)pyrrolidin-1-yl]methanone] are 27 nM and 17 nM.

Source of the values: patent US20160108027A1, “SUBSTITUTED BENZOXAZOLES” (BAYER PHARMA AKTIENGESELLSCHAFT, priority 2013, published 2016).
